Patent US12648903B2, “Skin care composition” (BEIERSDORF AG, priority 2019, dated 2026)

Assays:
C. acnes strain C3 = assay: Minimum inhibitory concentration (MIC) of cosmetic excipients, strain C3; format: cell-based, Cutibacterium acnes; settings: % w/vol, incubated anaerobically 3 days at 37° C., growth scored visually
Description: (§1) In microbiology, the MIC is the lowest concentration of a chemical which prevents visible growth of bacterium. The resulted MIC value depends both on the microorganism and the test compound. The MIC is determined by preparing concentrations series of the test compound in vitro, incubating the solutions with the separate batches of cultured bacteria, and measuring the results using agar dilution or broth microdilution. For the experiments with C. acnes strains C3 and K8, media comprising yeast extract soy peptone and dextrose were used. The MIC is determined by turbidity.
(§2) A total of 125 cosmetic excipients were tested for their compatibility with C. acnes strains C3 and K8. Hydrophilic compounds were tested in a 96-well plate liquid broth format, poorly soluble compounds were pre-dissolved in DMSO before dilution in liquid broth and hydrophobic or solid compounds were tested in an agar well diffusion test assay. The different dilutions of the test excipients in media were prepared in Falcon tubes and then distributed in a deep well plate using a multistepper. Each well received 1.2 ml and was subsequently inoculated with 120 μl of C. acnes bacteria suspension (strain C3 and K8). From the deep well plate 200 μl were transferred in each well of a clear 96 well replicate plate. The leftover was discarded. The plates were then incubated anaerobically for 3 days at 37° C. Following incubation, the test plates were visually examined and wells were scored for growth or complete growth inhibition to define the minimum inhibitory concentration.
(§3) These excipients are listed in the below table with their compatibility values for C. acnes strains C3 and K8. The compatibility values represent the MIC value of the listed ingredients with the tested C. acnes strains. At this concentration [% w/vol] the tested compound starts interfering with the growth of the tested strains. The compounds can be used in formulations at concentrations below this concentration.

C. acnes strain K8 = assay: Minimum inhibitory concentration (MIC) of cosmetic excipients, strain K8; format: cell-based, Cutibacterium acnes; settings: % w/vol, incubated anaerobically 3 days at 37° C., growth scored visually
Description: as §1, §2, §3

Row | Compound | COMPATABILITY VALUE C3 [%] (MIC value) (C. acnes strain C3) | COMPATABILITY VALUE K8 [%] (MIC value) (C. acnes strain K8)
1 | CCCCCCC(O)CO (centres unmarked) [caprylyl glycol] | 0.18 | 0.18
2 | CC(CO)CO [methylpropanediol] | 4.00 | 4.00
3 | ethylhexyl cocoate | 10.00 | 10.00
4 | tocopherol | 1.50 | 1.50
